Data published in patent US20080044491A1, “METAL-CONTAINING FORMULATIONS AND METHODS OF USE” (priority 2006, published 2008).
Values after ≈ are worked out from the molar mass of the structure shown. “Also recorded” adds a separate entry of the source.

How the values were obtained:
[1] = Compatibility of nanocrystalline silver with excipients; assay type: physicochemical; settings: 10% aqueous solution of excipient with nanocrystalline silver, glass vial, 40° C. overnight
[2] = test system: Escherichia coli; assay: MIC assay (microdilution); assay type: cell-based
[3] = test system: Enterobacter cloacae; assay: MIC assay (microdilution); assay type: cell-based; settings: Ent. cloacae
[4] = DNBS-induced colitis in rat: body weight change; assay type: in vivo; settings: rats with DNBS-induced colitis (FIGS. 10, 11)
Text: Animals: Male Sprague-Dawley rats, weighing approximately 250-300 gm were purchased from Charles River Laboratories (Raleigh, N.C.). The animals were housed under standard conditions with free access to food and water. They were acclimatized for 2-3 days before commencing the experiments. The study protocol was approved by the Institutional Animal Care and Use Committees (IACUC).
Induction of ulcerative colitis: Colitis was produced according to published methods. Animals were anesthetized by intraperitoneal injection of 75 mg/kg of ketamine plus 5 mg/kg of xylazine. A single intracolonic injection of 120 mg/ml of dinitrobenzenesulfonic acid (DNBS) (Sigma Chemicals, St. Louis, Mo.) in 250 micro liter of 50% ethanol was administered through a Tom Cat catheter (Kendall Sovereign, Mansfield, Mass.) with a closed-end tip, connected to a 1 ml syringe and placed 7 cm proximal to the anus. Lubricant was applied to the tip of the catheter before injection, to protect from mucosal injury. After instillation of DNBS, 0.5 ml of air was insufflated and the catheter was removed. […]
Macroscopic Observations: Body weight was recorded daily and the animals were examined for their physical appearance. […] After scoring of the consistency of the stool the colon was rinsed in normal saline, examined and thickness of the colonic wall and number and size of ulcers were scored. […]

[5] = test system: DNBS-induced colitis; assay: DNBS-induced colitis in rat: total IBD score; assay type: in vivo
Method: Sulfasalazine (Sigma Chemicals, St Louis, Mo.), at a concentration of 120 mg/ml for intracolonic treatment and 30 mg/ml for oral treatment was used as the reference drug in all the experiments. Sulfasalazine was first dissolved in 0.1M NaOH at a concentration about 30-fold higher than the required final concentration, and then suspended in 1.5% PVA for oral dosing and 5.7% PVA for intracolonic dosing.
One group was not treated and served as no treatment group. Treatment began one day after administration of DNBS.
Macroscopic Observations: Body weight was recorded daily and the animals were examined for their physical appearance. After five days of treatment, animals were sacrificed. The colon was excised between the ileocecal junction and rectum, and opened longitudinally. After scoring of the consistency of the stool the colon was rinsed in normal saline, examined and thickness of the colonic wall and number and size of ulcers were scored. Stool consistency was graded on a scale of 0-3: 0=normal stool, well formed pellets rigid as normal; 1=loose stool, formed pellet with moisture, soft stool keeping in stool shape; 2=loose stool, stools that have abnormal form with much moisture, softer shapeless stool; 3=watery or bloody diarrhea.
Thickness of colonic wall was graded on a scale of 0-4: 0=normal, no thickness; 1=mild thickness in lower portion of the colon; 2=moderate thickness in localized area; 3=moderate thickness extending to the central portion of the colon; 4=severe thickness in the whole colon. Colonic ulceration was graded on a scale of 0-10: 0=no ulcers; 1=one small ulcer less than 2-3 mm; 2=one large ulcer more than 2-3 mm; 3=two large ulcerations more than 2-3 mm in diameter; 4=two or more sites of ulcerations extending 1 cm along the length; 5-10=when an area of ulceration extended more than 1 cm along the length of the colon, the score increases by 1 for each additional cm of involvement. The total IBD score, obtained by the sum of the scores of colonic ulcer, colon thickness and stool consistency for each animal, was calculated for each treatment group.
Statistical Analysis: The results are expressed as the mean ±SE. The statistical significance in the mean total IBD score, histopathological inflammation score, and the immunohistochemical staining of cytokines or MMP-9 was determined using Tukey-Kramer's multiple comparison tests following one-way analysis of variance (ANOVA). The data were calculated with the aid of Instat Graph Pad Software. Differences with a P value less than 0.05 were considered significant.
Methods: Colitis was induced in rats using DNBS as described in Example 25. Animals were treated intracolonically (250 μl of the test reagents) once a day for five days. […] Methods: Colitis was induced in rats using DNBS as described in Example 25. Animals were treated intracolonically (250 μl of the test reagents) once a day for five days.

[6] = test system: TNF-α; assay: Immunohistochemical staining of colonic tissue; assay type: in vivo, rat; settings: DNBS colitis, five days oral treatment
Method: (§1) Immunohistochemistry: A Universal Streptavidin/Biotin detection system (Thermo Shandon, Pittsburgh, Pa.) was used for immunohistochemical staining of formalin fixed, paraffin embedded biopsies of the colon. After dewaxing, and hydration, sections were treated with protein blocking agent to reduce non-specific binding of antibodies. The tissues were then incubated with rabbit anti-rat TNF-α, or mouse anti-rat IL-12 p70 antibodies (Biosource International, Inc, Camarillo, Calif.); rabbit anti-rat IL-1β (Serotec, Raleigh, N.C.) or rabbit anti-rat MMP-9 antibody (Chemicon International, Telecuma, Calif.) in 1% bovine serum albumin in phosphate buffered saline. Incubations with secondary antibodies, streptavidin/biotin, and chromogenic detection of peroxidase were performed according to the manufacturer's protocol. Sections were counterstained, dehydrated, mounted and examined. The intensity of the immuno-peroxidase staining was graded as described previously. Expression of cytokines was graded as: 0, no staining in the section; 1, less than 25% of the section; 2, 25-50% of the section; 3, 50-75% of the section; 4, >75% of the section with significant staining.

[7] = test system: MMP-9; assay: Immunohistochemical staining of colonic tissue; assay type: in vivo, rat; settings: vs placebo and no treatment (FIG. 19)
Method: as §1

[8] = test system: IL-1β; assay: Immunohistochemical staining of colonic tissue; assay type: in vivo, rat; settings: DNBS colitis, five days oral treatment
Method: as §1

[9] = test system: DNBS-induced colitis; assay: DNBS-induced colitis in rat: histopathological inflammation score of colon; assay type: in vivo; settings: oral, 100 mg/kg, five days
Method: Histopathology: A piece of colonic tissue at 2-4 cm proximal to the anus was excised and fixed in 10% formalin and the sections were stained with hematoxylin and eosin. The remaining length of the colonic tissues was stored at −80° C. for subsequent biochemical assays. The histology slides were examined by a veterinary pathologist who was blinded to the treatment groups. The extent of microscopic mucosal damage of the colon was scored on scale of 0-5 as described with slight modification: 0=normal histological appearance; 1=histological damage limited to surface epithelium, mild infiltration of the submucosa; 2=focal ulceration and cell disruption limited to mucosa, abnormal appearance of colonic wall, mild infiltration of inflammatory cells; 3=focal, transmural inflammation and ulceration, with mild to moderate infiltration of inflammatory cells; 4=Extensive transmural ulceration and inflammation bordered by areas of normal mucosa, moderate infiltration of inflammatory cells; 5=extensive transmural ulceration and inflammation involving entire section from epithelium to serosa, severe infiltration of inflammatory cells.
Statistical Analysis: The results are expressed as the mean ±SE. […] The data were calculated with the aid of Instat Graph Pad Software. […]

[10] = test system: MMP-9; assay: Gelatin zymography of colonic homogenates; assay type: in vivo, rat; settings: oral 100 mg/kg
Method: Gelatin Zymography: Activities of MMP-9 and MMP-2 in colonic tissue homogenates were determined by gelatin zymography as described previously. Briefly, colonic homogenates were mixed with equal volume of zymograph sample buffer. Samples were loaded on a 10% SDS-polyacrylamide gel containing 0.1% gelatin. After electrophoresis, the SDS was removed from the gel by incubation with renaturing buffer containing 2% Triton-X-100 for 1 hour. The gel was incubated overnight in developing buffer containing 50 mM Tris-HCl, pH 7.8, 5 mM CaCl2, 0.2 M NaCl, 0.02% Brij-35. The gel was subsequently stained with Coumassie blue for 30 minutes and destained with destaining solution containing 8% acetic acid and 4% methanol. Gelatinolytic activity was determined as transparent bands against the blue background of stained gelatin. MMPs were identified by their molecular weight compared with the standards. Absence of a transparent band on the gel was evidenced as no MMP-9 or MMP-2 activity of the sample tested.

[11] = test system: Mycobacterium tuberculosis H37Ra (ATCC 25177); assay type: cell-based
[12] = test system: Pseudomonas aeruginosa; assay: MIC assay (microdilution); assay type: cell-based; settings: lactate solutions, nanocrystalline silver = range for 12 samples
[13] = test system: Streptococcus pneumoniae; assay: MIC assay (microdilution); assay type: cell-based; settings: lactate solutions, nanocrystalline silver = range for 12 samples
[14] = test system: Staphylococcus epidermidis; assay: MIC assay (microdilution); assay type: cell-based; settings: S. epiderm (ATCC); lactate solutions; nanocrystalline silver = range for 12 samples
[15] = test system: Staphylococcus aureus; assay: MIC assay (microdilution); assay type: cell-based; settings: lactate solutions, nanocrystalline silver = range for 12 samples
[16] = test system: Streptococcus pyogenes; assay: MIC assay (microdilution); assay type: cell-based; settings: lactate solutions, nanocrystalline silver = range for 12 samples

OCc1ccccc1 [Benzyl alcohol]
Reaction with nanocrystalline silver [1]: Grey/slightly red

CCCCCCCCCCCCCCCCCCO [Cetearyl alcohol]
Reaction with nanocrystalline silver [1]: Light brown/green/black

CCCCCCCCCCCCCCCCO [Cetyl alcohol]
Reaction with nanocrystalline silver [1]: Grey color - no discoloration

CCCCCCCCCCCCCCCCCC(=O)OCC(O)CO (stereo not drawn) [Glycerol monostearate]
Reaction with nanocrystalline silver [1]: Brown discoloration

CCCCCCCCCCCCCC(=O)OC(C)C [Isopropyl myristate]
Reaction with nanocrystalline silver [1]: Grey color - no discoloration

COC(=O)c1ccc(O)cc1 [Methylparaben]
Reaction with nanocrystalline silver [1]: Brown discoloration

CC(O)CO (stereo not drawn) [Propylene glycol]
Reaction with nanocrystalline silver [1]: Discoloration

CCCOC(=O)c1ccc(O)cc1 [Propylparaben]
Reaction with nanocrystalline silver [1]: Green discoloration

OO [Sample H2O2, hydrogen peroxide]
MIC ([2]; E. coli, Catalase/SOD +): >500 µg/mL
MIC ([2]; E. coli, Catalase/SOD −): 31 µg/mL (≈ 911 µM)
Reaction with nanocrystalline silver [1]: Brown discoloration after drying
MIC ([3]; Catalase/SOD +): >500 µg/mL
MIC ([3]; Catalase/SOD −): 63 µg/mL (≈ 1850 µM)

O=C([O-])c1ccccc1.[Na+] [Sodium benzoate]
Reaction with nanocrystalline silver [1]: White precipitate

CCCCCCCCCCCCCCCCCC(=O)O [Stearic acid]
Reaction with nanocrystalline silver [1]: Grey color - no discoloration

CCOCCOCCO [Transcutol, diethylene glycol monoethyl ether]
Reaction with nanocrystalline silver [1]: Grey color - no discoloration

O=C(O)c1cc(/N=N/c2ccc(S(=O)(=O)Nc3ccccn3)cc2)ccc1O [sulfasalazine, salicylazosulfapyridine]
body weight change [4]: started gaining body weight after one day of treatment
total IBD score vs placebo ([5]; intracolonic, 100 mg/kg, five days): Significant reduction; also recorded: significantly reduced total IBD score
total IBD score vs placebo ([5]; intracolonic, 100 mg/kg, five days, listed as Sulfasalazine): significantly reduced total IBD score
total IBD score ([5]; oral, 100 mg/kg, five days): significant reduction
expression of TNF-α (immunohistochemical staining) [6]: significantly reduced the expression
expression of MMP-9 (immunohistochemical staining) [7]: significantly reduced the expression
expression of IL-1β (immunohistochemical staining) [8]: significantly reduced the expression
histopathological inflammation vs placebo and untreated [9]: significantly reduced
MMP-9 activity (gelatin zymography) [10]: reduced MMP-9 activity

Sodium parabens
Reaction with nanocrystalline silver [1]: Precipitation

silver oxide [Ag2O]
minimum inhibitory concentration (MIC) [11]: 2.5 μg/ml silver
MIC ([12]; P. aerug (ATCC)): 0.8 µg/mL
MIC ([12]; P. aerug. (clin.)): 2 µg/mL
total IBD score vs placebo ([5]; intracolonic 250 μl once a day for five days, 0.25% homogenized): unable to show significant reduction
total IBD score vs placebo ([5]; intracolonic 250 μl once a day for five days, 0.25% sonicated nanodispersion): but not 0.25% sonicated
total IBD score vs placebo ([5]; intracolonic 250 μl once a day for five days, 0.5% homogenized): unable to show significant reduction
total IBD score vs placebo ([5]; intracolonic 250 μl once a day for five days, 0.5% sonicated nanodispersion): significantly reduced the total IBD score
total IBD score vs placebo ([5]; intracolonic 250 μl once a day for five days, 1.5% sonicated nanodispersion): significantly reduced the total IBD score
MIC ([13]; S. pneumo (clin 314)): 3 µg/mL
MIC ([13]; S. pneumo (clin 315)): 2 µg/mL
MIC [14]: 2 µg/mL
MIC ([15]; S. aureus (ATCC)): 3 µg/mL
MIC ([15]; S. aureus (clin.)): 6 µg/mL
MIC ([2]; E. coli (ATCC), lactate solutions, nanocrystalline silver = range for 12 samples): 0.8 µg/mL
MIC ([16]; S. pyog (clin. 303)): 2 µg/mL
MIC ([16]; S. pyog (clin. 304)): 3 µg/mL
